The values that follow come from the Deep4Chem optical property database.

The series in a line: photoluminescence quantum yield (fraction); solvent given as SMILES.
Setting [1] is: in O=P(c1ccccc1)(c1ccccc1)c1ccccc1Oc1ccccc1P(=O)(c1ccccc1)c1ccccc1.

Molecules are shown by their SMILES.

For `Cc1cc(-c2ccc(-c3ccccc3)cc2)nc(-c2ccc(-n3c4ccccc4c4ccccc43)cc2)n1`, the photoluminescence quantum yield reads like this: (in C1CCOC1) 0.22; (in CN(C)C=O) 0.24; (in Cc1ccccc1) 0.24; (in ClC(Cl)Cl) 0.43.

Take `COc1ccc(C2=C(c3ccc(-c4ccccc4)cc3)C(c3ccccc3)=[N+]3C2=Nc2c(-c4ccc(OC)cc4)c(-c4ccc(-c5ccccc5)cc4)c(-c4ccccc4)n2[B-]3(F)F)cc1`: where the note is “in Cc1ccccc1”, the photoluminescence quantum yield amounted to 0.01.

Where the note is “in CN(C)C=O”, `NCCCCCCCCCCCCN1C(=O)c2ccc3c4ccc5c6c(ccc(c7ccc(c2c37)C1=O)c64)C(=O)NC5=O` showed a photoluminescence quantum yield of 0.89.

As for `c1ccc(-c2ccc(-c3ccc4c(c3)CCCO4)cc2)cc1`, the photoluminescence quantum yield (in C1CCCCC1) was 0.62.

Consider `COc1cc2c3sc4ccccc4c3c3cncnc3c2c(OC)c1OC`, for which the photoluminescence quantum yield (in ClCCl) was found to be 0.09.

As for `COc1ccc(N(c2ccc(OC)cc2)c2ccc3ccc4c(B(c5c(C)cc(C)cc5C)c5c(C)cc(C)cc5C)ccc5ccc2c3c54)cc1`, the photoluminescence quantum yield runs as follows: (in C1CCOC1) 0.19; (in CC(C)=O) 0.026; (in CCCCCC) 1; (in Cc1ccccc1) 0.85; (in ClC(Cl)Cl) 0.67; (in ClCCl) 0.21.

Consider `COc1ccc2c(-c3nc(-c4cccc(Br)c4)no3)cc(=O)oc2c1`, for which the photoluminescence quantum yield is, setting by setting: (in CCO) 0.41; (in ClC(Cl)Cl) 0.33.

With `CCCCC(CC)COc1ccc2nc(-c3ccc(-c4ccccc4)s3)sc2c1` (stereo not drawn), the photoluminescence quantum yield (in ClCCl) came to 0.58.

`Oc1ccc2ccccc2c1-c1nc2c(c3c1-c1ccccc1CC3)-c1ccccc1CC2`: the photoluminescence quantum yield (in ClCCl) turned out to be 0.07.

As to `Oc1c(-c2ccco2)cccc1-c1nc2ccccc2s1`, the photoluminescence quantum yield turned out to be 0.0057 (in CCO), 0.0137 (in ClCCl) and 0.01 (in O).

`CC(C)(C)c1ccc2c(c1)c1cc(C(C)(C)C)ccc1n2-c1cccc(-c2nc(-c3cccc(-n4c5ccc(C(C)(C)C)cc5c5cc(C(C)(C)C)ccc54)c3)nc(-c3cccc(P(=O)(c4ccccc4)c4ccccc4)c3)n2)c1` yielded a photoluminescence quantum yield under setting [1] of 0.55.

For `Nc1ncnc2c1c(-c1ccc3ccccc3c1)nn2[C@H]1C[C@H](O)[C@@H](CO)O1`, the photoluminescence quantum yield came out at 0.11 (in C1COCCO1); 0.1 (in CC#N); 0.16 (in CC(C)O); 0.14 (in CCO); 0.08 (in CCOC(C)=O); 0.13 (in CN(C)C=O). For the same molecule, the photoluminescence quantum yield (in CO) was determined as 0.14, the photoluminescence quantum yield (in CS(C)=O) amounted to 0.15, the photoluminescence quantum yield (in OCC(O)CO) came to 0.11 and the photoluminescence quantum yield (in OCCO) stood at 0.21.

`F[B-]1(F)OC(c2ccccc2)=Nc2sc(-c3ccccc3)n[n+]21`: the photoluminescence quantum yield came to 0.02 (in C1CCOC1); 0.01 (in CCO); 0.01 (in CCOC(C)=O); 0.01 (in CN(C)C=O); 0.06 (in Cc1ccccc1); 0.05 (in ClC(Cl)Cl). This molecule registered a photoluminescence quantum yield (in ClCCl) of 0.03.

Take `N#Cc1nc(N(Cc2ccccc2Cl)Cc2ccccc2Cl)c(C#N)nc1N(Cc1ccccc1Cl)Cc1ccccc1Cl`: the photoluminescence quantum yield (in ClC(Cl)Cl) was 0.78.

With `Cc1cc(-c2ccc(C(C)(C)C)cc2)c2nsnc2c1-c1ccc(C(C)(C)C)cc1`, where the note is “in ClCCl”, the photoluminescence quantum yield was found to be 0.14.

Molecule `COc1ccc2ccc3oc(=O)c(-c4ccccc4)nc3c2c1` showed a photoluminescence quantum yield (in c1ccccc1) of 0.668.

Consider `COc1ccc2c(c1)[n+]([O-])nc(N)[n+]2[O-]`, for which the photoluminescence quantum yield is, setting by setting: (in CC#N) 0.0227; (in O) 0.0124.

The molecule `Brc1ccc(/C=C/c2ccncn2)cc1` gave a photoluminescence quantum yield (in ClCCl) of 0.01.

The molecule `CCCCCCn1c2cc(/C=C/c3cccs3)ccc2c2ccc(/C=C/c3cccs3)cc21` came in with a photoluminescence quantum yield (in ClC(Cl)Cl) of 0.89.

Consider `Cc1ccc(-c2ccc3ccc4cc(C(C)(C)C)cc5ccc2c3c45)cc1`, for which the photoluminescence quantum yield reads like this: (in C1CCOC1) 0.41; (in ClCCl) 0.38.

Turning to `CCCCCCN1C(=O)c2cccc3cc(/N=C\c4cnc5ccccc5c4)cc(c23)C1=O`, the photoluminescence quantum yield (in ClC(Cl)Cl) was found to be 0.006.

In turn, `CC(C)(C)c1cc(-c2ccc3c(-c4cc(C(C)(C)C)cc(C(C)(C)C)c4)cc4c5cc(-c6cc(C(C)(C)C)cc(C(C)(C)C)c6)ccc5c(-c5cc(C(C)(C)C)cc(C(C)(C)C)c5)cc4c3c2)cc(C(C)(C)C)c1` registered a photoluminescence quantum yield (in ClCCl) of 0.609.

On to `c1ccc(-c2cccc3ncc(-c4ccccc4)n23)cc1`, for which, for the setting “in ClCCl”, the photoluminescence quantum yield came out at 0.24.

Consider `CC(C)(C)c1ccc2c(c1)c1cc(C(C)(C)C)ccc1n2-c1ccc(C#Cc2ccc(C=C(C#N)C#N)cc2)cc1`, for which the photoluminescence quantum yield is, setting by setting: (in CC#N) 0.33; (in CCCCC) 0.5; (in Cc1ccccc1) 0.48; (in ClCCl) 0.4.

The molecule `CC(=O)N(Cc1ccccn1)c1c2ccccc2c2c3c(cccc13)C(=O)N(Cc1ccccn1)C2=O` displayed a photoluminescence quantum yield (in C1CCOC1) of 0.36; a photoluminescence quantum yield (in CCCCCC) of 0.59; a photoluminescence quantum yield (in CCO) of 0.35; a photoluminescence quantum yield (in Cc1ccccc1) of 0.52; a photoluminescence quantum yield (in ClCCl) of 0.48.

With `c1ccc(-c2nc(-c3ccccc3)nc(-c3ccc(-n4c5ccc(-n6c7ccccc7c7ccccc76)cc5c5cc(-n6c7ccccc7c7ccccc76)ccc54)cc3)n2)cc1`, the photoluminescence quantum yield (in Cc1ccccc1) turned out to be 0.57.

Consider `CCCCCCC1(CCCCCC)c2cc(-c3nc(-c4ccc5c(c4)C(CCCCCC)(CCCCCC)c4cc(N6c7ccccc7Sc7ccccc76)ccc4-5)nc(-c4ccc5c(c4)C(CCCCCC)(CCCCCC)c4cc(N6c7ccccc7Sc7ccccc76)ccc4-5)n3)ccc2-c2ccc(N3c4ccccc4Sc4ccccc43)cc21`, for which the photoluminescence quantum yield worked out at 0.01 (in C1CCOC1), 0.04 (in CCCCCC), 0.02 (in Cc1ccccc1) and 0.003 (in ClCCl).

As for `c1ccc2c(-n3c4ccccc4c4ccccc43)cccc2c1`, the photoluminescence quantum yield runs as follows: (in C1CCCCC1) 0.54; (in CCOC(C)=O) 0.51; (in CO) 0.36.

For the molecule `CC1(C)c2ccccc2N(c2ccc3c(ccc4nc5ccc6cc(N7c8ccccc8C(C)(C)c8ccccc87)ccc6c5nc43)c2)c2ccccc21`, the photoluminescence quantum yield is, setting by setting: (in C1CCCCC1) 0.16; (in C1CCOC1) 0.07; (in Cc1ccccc1) 0.11; (in ClCCl) 0.05.

Under “in Cc1ccccc1”, `Cc1ccc(-n2c(-c3ccccc3NS(=O)(=O)c3ccc(C)cc3)nc3c4ccccc4c4ccccc4c32)cc1` returned a photoluminescence quantum yield of 0.007.

The molecule `COc1cc(OC)cc(C2=C3C(C)=C(I)C(C)=[N+]3[B-](F)(F)n3c(C)c(I)c(C)c32)c1` had a photoluminescence quantum yield (in CS(C)=O) of 0.03.

Molecule `N#Cc1cc(/C=C/c2ccc(N(c3ccccc3)c3ccccc3)cc2)ccc1/C=C/c1ccc(/C=C/c2ccc(N(c3ccccc3)c3ccccc3)cc2)cc1C#N` registered a photoluminescence quantum yield (in ClCCl) of 0.41.

As for `Nc1ccc(/C=C/c2ccccc2)cc1`, the photoluminescence quantum yield was found to be 0.03 (in CC#N) and 0.03 (in CCCCCC).

Molecule `COC(=O)c1ccc(/C=C2\C=C(c3ccc([N+](=O)[O-])cc3)OC2=O)cc1` gave a photoluminescence quantum yield (in C1COCCO1) of 0.002.

For the molecule `CCOC(CN1C(=O)C2=C(c3ccc(OC)c(OC)c3)N(CC(OCC)OCC)C(=O)C2=C1c1ccc(OC)c(OC)c1)OCC`, the photoluminescence quantum yield (in ClC(Cl)Cl) came out at 0.9.

The molecule `CCCC1=Cc2nc1ccc1[nH]c(cc1CCC)c1nc(c(OC)cc3[nH]c2cc3CCC)C(CCC)=C1` had a photoluminescence quantum yield (in Cc1ccccc1) of 0.18.

As to `CCCCN1C(=O)c2cc(Oc3ccc(C(C)(C)C)cc3)c3c4c(Oc5ccc(C(C)(C)C)cc5)cc5c(=O)[nH]/c(=C\c6ccccn6)c6cc(Oc7ccc(C(C)(C)C)cc7)c(c7c(Oc8ccc(C(C)(C)C)cc8)cc(c2c37)C1=O)c4c56`, the photoluminescence quantum yield runs as follows: (in C1CCOC1) 0.336; (in Cc1ccccc1) 0.408; (in ClCCl) 0.421.

`Cc1ccc(-c2nc3c([nH]2)C2=CC(=O)S[C@]2(C)[C@@]2(C)SC(=O)C=C32)cc1` returned a photoluminescence quantum yield (in CC#N) of 0.14.

On to `N#CC(C#N)=Cc1ccc(-c2cccc(-c3nc4ccccc4s3)c2O)s1`, for which the photoluminescence quantum yield turned out to be 0.0956 (in CCO), 0.152 (in ClCCl) and 0.01 (in O).

As to `c1ccc2c(c1)OP1(=NP3(=NP(Oc4ccc5ccc6cccc7ccc4c5c67)(Oc4ccc5ccc6cccc7ccc4c5c67)=N1)Oc1ccccc1-c1ccccc1O3)Oc1ccccc1-2`, the photoluminescence quantum yield (in ClCCl) was determined as 0.82.

For `c1cc2ccc3ccc(-n4c5ccccc5c5ccccc54)c4ccc(c1)c2c34`, the photoluminescence quantum yield is, setting by setting: (in CCCCCC) 0.26; (in CCO) 0.38; (in CCOC(C)=O) 0.29; (in ClCCl) 0.44.

Consider `CC1=CC(C)=[N+]2C1=C(c1ccc3cccnc3n1)c1c(C)cc(C)n1[B-]2(F)F`, for which the photoluminescence quantum yield (in CC#N) is 0.04; the photoluminescence quantum yield (in CCCCCC) came out at 0.08; the photoluminescence quantum yield (in CO) came out at 0.16; the photoluminescence quantum yield (in ClC(Cl)Cl) is 0.07; the photoluminescence quantum yield (in ClCCl) worked out at 0.06.

For the molecule `CC1(C)c2ccccc2N(c2ccc3c(c2)Oc2ccccc2S3(=O)=O)c2ccccc21`, the photoluminescence quantum yield is 0.48 (in Cc1ccccc1) and 0.98 under setting [1].

Turning to `CCCCC1=Cc2c3ccc4cccc5ccc(c6cc(-c7ccccc7)n(c26)P1(=O)c1ccccc1)c3c45` (stereo not drawn), the photoluminescence quantum yield was 0.64 (in C1CCCCC1); 0.51 (in C1CCOC1); 0.55 (in C1COCCO1); 0.54 (in CC#N); 0.56 (in CC(C)=O); 0.51 (in CO). Besides, the photoluminescence quantum yield is, setting by setting: (in Cc1ccccc1) 0.6; (in ClC(Cl)Cl) 0.56; (in ClCCl) 0.57.
